For five molecules, EC50, Activity and Tm results are on record in ChEMBL document CHEMBL3390848, “Affinity selection and sequence-activity relationships of HIV-1 membrane fusion inhibitors directed at the drug-resistant variants” (Medchemcomm, 2010).

Residues, ends and D or L forms follow the SMILES beside them.

For assay [1], the system named is Human immunodeficiency virus 1. The assay can be described thus: Antiviral activity against HIV1 NL4-3 harboring gp41 D36G mutant infected in human HeLa cells expressing CD4-LTR-beta-gal assessed as inhibition of viral replication after 48 hrs by MAGI assay. It is filed as functional, organism-based.
For assay [2], the system named is Human immunodeficiency virus 1. Nature of the assay: Binding affinity to HIV1 His-tagged N-terminal heptad repeat of envelope glycoprotein gp41 assessed as recovery of N36 N43D mutant-drug complex after 2 hrs by LC-MS analysis. Further details: concentration or dose not given beside the values.
Assay [3] deals with Human immunodeficiency virus 1. The assay can be described thus: Binding affinity to HIV1 His-tagged N-terminal heptad repeat of envelope glycoprotein gp41 assessed as recovery of N36-drug complex at 10 uM after 2 hrs by LC-MS analysis.
In assay [4] the test system is Human immunodeficiency virus 1. The assay can be described thus: Binding affinity to HIV1 His-tagged N-terminal heptad repeat of envelope glycoprotein gp41 assessed as recovery of N36-drug complex at 1 uM after 2 hrs by LC-MS analysis.
Assay [5] deals with Human immunodeficiency virus 1. The assay can be described thus: Thermal stability of HIV1 envelope glycoprotein gp41 His-tagged N-terminal heptad repeat N36 N43D mutant-drug complex assessed as thermal unfolding transition state by measuring molar ellipticity at 4 to 90 degC by circular dichroic spectra analysis.
Assay [6] has as its system Human immunodeficiency virus 1. The assay can be described thus: Thermal stability of HIV1 envelope glycoprotein gp41 His-tagged N-terminal heptad repeat N36-drug complex assessed as thermal unfolding transition state by measuring molar ellipticity at 4 to 90 degC by circular dichroic spectra analysis.
Assay [7] has as its system Human immunodeficiency virus 1. Nature of the assay: Binding affinity to HIV1 His-tagged N-terminal heptad repeat of envelope glycoprotein gp41 assessed as recovery of N36-drug complex at 6 uM after 2 hrs by LC-MS analysis.
The subject of assay [8] is Envelope glycoprotein gp160 (Human immunodeficiency virus 1), Q72502 [V38A]. Nature of the assay: Thermal stability of HIV1 envelope glycoprotein gp41 His-tagged N-terminal heptad repeat N36 V38A mutant-drug complex assessed as thermal unfolding transition state by measuring molar ellipticity at 4 to 90 degC by circular dichroic spectra analysis.
Assay [9] shares this test system. The assay can be described thus: Binding affinity to HIV1 His-tagged N-terminal heptad repeat of envelope glycoprotein gp41 assessed as recovery of N36 V38A mutant-drug complex after 2 hrs by LC-MS analysis. Details: concentration or dose not given beside the values.
In assay [10] the test system is Human immunodeficiency virus 1. Nature of the assay: Binding affinity to HIV1 His-tagged N-terminal heptad repeat of envelope glycoprotein gp41 assessed as recovery of N36-drug complex at 0.6 uM after 2 hrs by LC-MS analysis.

Turning to `CC[C@H](C)[C@H](NC(=O)[C@H](CC(C)C)NC(=O)[C@H](CCC(=O)O)NC(=O)[C@H](CCC(=O)O)NC(=O)[C@@H](NC(=O)[C@H](CCCCN)NC(=O)[C@H](CCCCN)NC(=O)[C@@H](NC(=O)[C@H](Cc1ccc(O)cc1)NC(=O)[C@H](CCC(=O)O)NC(=O)[C@H](CCC(=O)O)NC(=O)[C@@H](NC(=O)[C@H](CCCCN)NC(=O)[C@H](CCCCN)NC(=O)[C@H](CC(=O)O)NC(=O)[C@H](Cc1c[nH]c2ccccc12)NC(=O)[C@H](CCC(=O)O)NC(=O)[C@H](CCC(=O)O)NC(=O)[C@H](Cc1c[nH]c2ccccc12)NC(C)=O)[C@@H](C)CC)[C@@H](C)O)[C@@H](C)CC)C(=O)N[C@@H](CCCCN)C(=O)N[C@@H](CCCCN)C(=O)N[C@@H](CC(C)C)C(=O)N[C@@H](CCC(=O)O)C(=O)N[C@@H](CCC(=O)O)C(=O)N[C@@H](CCC(N)=O)C(=O)N[C@@H](CCC(N)=O)C(=O)N[C@@H](CCCCN)C(=O)N[C@@H](CCCCN)C(=O)N[C@@H](CC(N)=O)C(=O)N[C@@H](CCC(=O)O)C(=O)N[C@@H](CCC(=O)O)C(=O)N[C@@H](CCC(=O)O)C(=O)N[C@@H](CC(C)C)C(=O)N[C@@H](CCCCN)C(=O)N[C@@H](CCCCN)C(N)=O` (Ac-WEEWDKKIEEYTKKIEELIKKLEEQQKKNEEELKK-NH2), the EC50 in assay [1] turned out to be 0.2 nM. Besides, the Activity in assay [2] was determined as 12.9%; in assay [3] it was 4.7%; in assay [4], 11.3%; in [7], 7.6%; in assay [9], 10.3%; in [10], 6.9%. Further, the values for the Tm in assay [5], in assay [6] and in assay [8] were 80 °C, 83.2 °C and 75 °C, respectively.

On to `CC[C@H](C)[C@H](NC(=O)[C@H](CCCCN)NC(=O)[C@H](CCCCN)NC(=O)[C@H](CC(=O)O)NC(=O)[C@H](Cc1c[nH]c2ccccc12)NC(=O)[C@H](CCC(=O)O)NC(=O)[C@H](CCC(=O)O)NC(=O)[C@H](Cc1c[nH]c2ccccc12)NC(C)=O)C(=O)N[C@@H](CCC(=O)O)C(=O)N[C@@H](CCC(=O)O)C(=O)N[C@@H](Cc1ccc(O)cc1)C(=O)N[C@H](C(=O)N[C@@H](CCCCN)C(=O)N[C@@H](CCCCN)C(=O)N[C@H](C(=O)N[C@@H](CCC(=O)O)C(=O)N[C@@H](CCC(=O)O)C(=O)N[C@@H](CC(C)C)C(=O)N[C@H](C(=O)N[C@@H](CCCCN)C(=O)N[C@@H](CCCCN)C(=O)N[C@H](C(=O)N[C@@H](CCC(=O)O)C(=O)N[C@@H](CCC(=O)O)C(=O)N[C@@H](CCC(N)=O)C(=O)N[C@@H](CCC(N)=O)C(=O)N[C@@H](CCCCN)C(=O)N[C@@H](CCCCN)C(=O)N[C@@H](CC(N)=O)C(=O)N[C@@H](CCC(=O)O)C(=O)N[C@@H](CCC(=O)O)C(=O)N[C@@H](CCC(=O)O)C(=O)N[C@@H](CC(C)C)C(=O)N[C@@H](CCCCN)C(=O)N[C@@H](CCCCN)C(N)=O)[C@@H](C)O)[C@@H](C)CC)[C@@H](C)CC)[C@@H](C)O` (Ac-WEEWDKKIEEYTKKIEELIKKTEEQQKKNEEELKK-NH2), for which the 50% effective concentration (EC50) in assay [1] amounted to 0.8 nM. The Activity in assay [2] was found to be 9.4%; in [3], 9%; in assay [4] it was 11.7%; in assay [7] it was 12.8%; in assay [9], 10.8%; in assay [10], 5.7%. In addition, the Tm in assay [5] worked out at 67.5 °C; in assay [6], 79.7 °C; in assay [8] it was 70.4 °C.

As for `CC[C@H](C)[C@H](NC(=O)[C@H](CC(C)C)NC(=O)[C@H](CCC(=O)O)NC(=O)[C@H](CCC(=O)O)NC(=O)[C@@H](NC(=O)[C@H](CCCCN)NC(=O)[C@H](CCCCN)NC(=O)[C@@H](NC(=O)[C@H](Cc1ccc(O)cc1)NC(=O)[C@H](CCC(=O)O)NC(=O)[C@H](CCC(=O)O)NC(=O)[C@@H](NC(=O)[C@H](CCCCN)NC(=O)[C@H](CCCCN)NC(=O)[C@H](CC(=O)O)NC(=O)[C@H](Cc1c[nH]c2ccccc12)NC(=O)[C@H](CCC(=O)O)NC(=O)[C@H](CCC(=O)O)NC(=O)[C@H](Cc1c[nH]c2ccccc12)NC(C)=O)[C@@H](C)CC)[C@@H](C)O)[C@@H](C)CC)C(=O)N[C@@H](CCCCN)C(=O)N[C@@H](CCCCN)C(=O)N[C@@H](C)C(=O)N[C@@H](CCC(=O)O)C(=O)N[C@@H](CCC(=O)O)C(=O)N[C@@H](CCC(N)=O)C(=O)N[C@@H](CCC(N)=O)C(=O)N[C@@H](CCCCN)C(=O)N[C@@H](CCCCN)C(=O)N[C@@H](CC(N)=O)C(=O)N[C@@H](CCC(=O)O)C(=O)N[C@@H](CCC(=O)O)C(=O)N[C@@H](CCC(=O)O)C(=O)N[C@@H](CC(C)C)C(=O)N[C@@H](CCCCN)C(=O)N[C@@H](CCCCN)C(N)=O` (Ac-WEEWDKKIEEYTKKIEELIKKAEEQQKKNEEELKK-NH2), the concentration for a half-maximal effect (EC50) in [1] was determined as 0.2 nM. Besides, the Activity turned out to be 12.9% in [2]; 30.7% in assay [3]; 11.5% in assay [4]; 22.5% in [7]; 11.4% in assay [9]; 5.3% in [10]. Also, the midpoint of thermal melting (Tm) worked out at 74.4 °C in assay [5], 86.4 °C in assay [6] and 76.1 °C in [8].

Regarding `CC[C@H](C)[C@H](NC(=O)[C@H](CC(C)C)NC(=O)[C@H](CCC(=O)O)NC(=O)[C@H](CCC(=O)O)NC(=O)[C@@H](NC(=O)[C@H](CCCCN)NC(=O)[C@H](CCCCN)NC(=O)[C@@H](NC(=O)[C@H](Cc1ccc(O)cc1)NC(=O)[C@H](CCC(=O)O)NC(=O)[C@H](CCC(=O)O)NC(=O)[C@@H](NC(=O)[C@H](CCCCN)NC(=O)[C@H](CCCCN)NC(=O)[C@H](CC(=O)O)NC(=O)[C@H](Cc1c[nH]c2ccccc12)NC(=O)[C@H](CCC(=O)O)NC(=O)[C@H](CCC(=O)O)NC(=O)[C@H](Cc1c[nH]c2ccccc12)NC(C)=O)[C@@H](C)CC)[C@@H](C)O)[C@@H](C)CC)C(=O)N[C@@H](CCCCN)C(=O)N[C@@H](CCCCN)C(=O)N[C@@H](Cc1c[nH]c2ccccc12)C(=O)N[C@@H](CCC(=O)O)C(=O)N[C@@H](CCC(=O)O)C(=O)N[C@@H](CCC(N)=O)C(=O)N[C@@H](CCC(N)=O)C(=O)N[C@@H](CCCCN)C(=O)N[C@@H](CCCCN)C(=O)N[C@@H](CC(N)=O)C(=O)N[C@@H](CCC(=O)O)C(=O)N[C@@H](CCC(=O)O)C(=O)N[C@@H](CCC(=O)O)C(=O)N[C@@H](CC(C)C)C(=O)N[C@@H](CCCCN)C(=O)N[C@@H](CCCCN)C(N)=O` (Ac-WEEWDKKIEEYTKKIEELIKKWEEQQKKNEEELKK-NH2), the EC50 in [1] is 3.1 nM. Further, the Activity amounted to 2.4% in assay [2]; 0.5% in assay [3]; 0.9% in assay [4]; 0.3% in assay [7]; 1% in [9]; 6.2% in assay [10]. Moreover, the midpoint of thermal melting (Tm) was 66 °C in [5], 66.4 °C in assay [6] and 64.6 °C in assay [8].

On to `CC[C@H](C)[C@H](NC(=O)[C@H](CCCCN)NC(=O)[C@H](CCCCN)NC(=O)[C@H](CC(=O)O)NC(=O)[C@H](Cc1c[nH]c2ccccc12)NC(=O)[C@H](CCC(=O)O)NC(=O)[C@H](CCC(=O)O)NC(=O)[C@H](Cc1c[nH]c2ccccc12)NC(C)=O)C(=O)N[C@@H](CCC(=O)O)C(=O)N[C@@H](CCC(=O)O)C(=O)N[C@@H](Cc1ccc(O)cc1)C(=O)N[C@H](C(=O)N[C@@H](CCCCN)C(=O)N[C@@H](CCCCN)C(=O)N[C@H](C(=O)N[C@@H](CCC(=O)O)C(=O)N[C@@H](CCC(=O)O)C(=O)N[C@@H](CC(C)C)C(=O)N[C@H](C(=O)N[C@@H](CCCCN)C(=O)N[C@@H](CCCCN)C(=O)N1CCC[C@H]1C(=O)N[C@@H](CCC(=O)O)C(=O)N[C@@H](CCC(=O)O)C(=O)N[C@@H](CCC(N)=O)C(=O)N[C@@H](CCC(N)=O)C(=O)N[C@@H](CCCCN)C(=O)N[C@@H](CCCCN)C(=O)N[C@@H](CC(N)=O)C(=O)N[C@@H](CCC(=O)O)C(=O)N[C@@H](CCC(=O)O)C(=O)N[C@@H](CCC(=O)O)C(=O)N[C@@H](CC(C)C)C(=O)N[C@@H](CCCCN)C(=O)N[C@@H](CCCCN)C(N)=O)[C@@H](C)CC)[C@@H](C)CC)[C@@H](C)O` (Ac-WEEWDKKIEEYTKKIEELIKKPEEQQKKNEEELKK-NH2), for which the 50% effective concentration (EC50) in assay [1] came out at 35 nM. Besides, the Activity in assay [2] was found to be 0.3%; in assay [3], 0.4%; in assay [4], 0.1%; in assay [7], 0.2%; in assay [9], 0.4%; in assay [10], 4.5%. In addition, the Tm is 55.6 °C in [5], 56.1 °C in [6] and 56.3 °C in assay [8].

What is called EC50 is the concentration giving half of the maximal effect. Broadly, the Tm is the temperature at the midpoint of the melting transition.
